This passage reports Kd results from article PMC9705739, “Canagliflozin, characterized as a HDAC6 inhibitor, inhibits gastric cancer metastasis” (Frontiers in Oncology, 2022).

The assay concerns the target T1, HDAC6 (Homo sapiens, UniProt Q9UBN7).
T1 sequence (Q9UBN7 1-1215): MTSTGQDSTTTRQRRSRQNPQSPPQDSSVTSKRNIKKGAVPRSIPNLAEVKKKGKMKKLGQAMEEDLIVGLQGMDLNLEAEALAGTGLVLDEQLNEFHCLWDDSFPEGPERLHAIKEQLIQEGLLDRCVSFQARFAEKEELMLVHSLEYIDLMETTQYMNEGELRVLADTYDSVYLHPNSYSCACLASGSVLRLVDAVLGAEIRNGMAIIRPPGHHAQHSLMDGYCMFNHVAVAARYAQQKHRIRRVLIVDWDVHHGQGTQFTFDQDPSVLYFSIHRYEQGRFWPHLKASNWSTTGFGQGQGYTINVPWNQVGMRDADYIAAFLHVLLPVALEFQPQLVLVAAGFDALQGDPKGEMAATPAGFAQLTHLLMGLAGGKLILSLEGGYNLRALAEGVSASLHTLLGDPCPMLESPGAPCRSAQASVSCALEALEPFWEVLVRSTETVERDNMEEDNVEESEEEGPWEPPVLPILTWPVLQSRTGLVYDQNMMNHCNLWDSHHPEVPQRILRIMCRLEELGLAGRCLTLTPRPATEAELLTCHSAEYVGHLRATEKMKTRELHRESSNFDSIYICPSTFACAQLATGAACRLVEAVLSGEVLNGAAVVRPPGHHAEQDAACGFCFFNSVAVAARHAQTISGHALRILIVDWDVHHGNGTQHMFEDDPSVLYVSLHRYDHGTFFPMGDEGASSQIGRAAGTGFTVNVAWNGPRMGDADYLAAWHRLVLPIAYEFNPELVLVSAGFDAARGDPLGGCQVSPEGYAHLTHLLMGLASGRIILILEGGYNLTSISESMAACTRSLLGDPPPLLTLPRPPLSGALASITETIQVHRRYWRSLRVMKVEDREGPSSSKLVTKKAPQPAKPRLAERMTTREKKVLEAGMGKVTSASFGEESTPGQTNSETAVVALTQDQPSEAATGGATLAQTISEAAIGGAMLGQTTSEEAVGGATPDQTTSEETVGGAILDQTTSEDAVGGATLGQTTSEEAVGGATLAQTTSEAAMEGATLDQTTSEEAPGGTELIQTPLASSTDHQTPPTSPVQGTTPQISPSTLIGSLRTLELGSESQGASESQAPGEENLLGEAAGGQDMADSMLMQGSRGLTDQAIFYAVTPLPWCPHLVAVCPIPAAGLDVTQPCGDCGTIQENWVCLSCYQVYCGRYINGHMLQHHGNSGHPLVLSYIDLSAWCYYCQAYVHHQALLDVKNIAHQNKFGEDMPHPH
Description: SPR (Biacore T200, immobilized HDAC6); also enzymatic inhibition IC50 […] and CETSA in MGC-803 cells. Format: binding. Background: In SPR one partner is held on a chip, and binding of the other changes the refractive index at the surface.

Structures are written as SMILES.

A word on the Kd: it is the free concentration of one partner at which half of the binding sites on the other are occupied at equilibrium, for simple one-to-one binding. A higher Kd goes with lower affinity. The molecule `Cc1ccc([C@@H]2O[C@H](CO)[C@@H](O)[C@H](O)[C@H]2O)cc1Cc1ccc(-c2ccc(F)cc2)s1` [canagliflozin] yielded a Kd of 859 nM.
